ChEMBL document CHEMBL4828778, “Novel Compounds as PHD Inhibitors for Treating Heart, Lung, Liver, and Kidney Diseases” (ACS Med Chem Lett, 2021)

What was measured:
[1] = target: Prolyl hydroxylase EGLN3 (Homo sapiens, UniProt Q9H6Z9); assay: Inhibition of recombinant full length human N-terminal 6His-tagged PHD3 expressed Escherichia coli using HIF1/C35 complex as substrate preincubated for 30 mins followed by substrate addition measured after 10 mins by TR-FRET assay
[2] = target: Egl nine homolog 1 (Homo sapiens, UniProt Q9GZT9); assay: Inhibition of full length human N-terminal His-tagged/TEV cleavage fused PHD2 expressed in baculovirus infected insect cells using HIF1/C35 complex as substrate preincubated for 30 mins followed by substrate addition measured after 10 mins by TR-FRET assay
[3] = target: Prolyl hydroxylase EGLN2 (Homo sapiens, UniProt Q96KS0); assay: Inhibition of recombinant full length human N-terminal FLAG-tagged PHD1 expressed in baculovirus expression system using HIF1/C35 complex as substrate preincubated for 30 mins followed by substrate addition measured after 10 mins by TR-FRET assay
Chain of Prolyl hydroxylase EGLN2 (Q96KS0 whole entry): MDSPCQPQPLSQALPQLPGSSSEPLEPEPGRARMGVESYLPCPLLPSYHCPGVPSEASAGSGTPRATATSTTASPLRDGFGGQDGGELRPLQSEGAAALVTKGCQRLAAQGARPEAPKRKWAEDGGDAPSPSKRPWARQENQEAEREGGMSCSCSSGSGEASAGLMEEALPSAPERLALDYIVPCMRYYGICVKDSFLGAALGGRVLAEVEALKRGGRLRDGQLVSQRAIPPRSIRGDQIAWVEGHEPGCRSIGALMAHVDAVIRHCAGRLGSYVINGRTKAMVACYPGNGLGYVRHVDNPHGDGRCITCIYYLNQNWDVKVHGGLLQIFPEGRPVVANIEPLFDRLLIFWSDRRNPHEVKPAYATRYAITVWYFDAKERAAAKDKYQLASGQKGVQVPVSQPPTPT

Chain of Egl nine homolog 1 (Q9GZT9 whole entry, the tested form may be a part): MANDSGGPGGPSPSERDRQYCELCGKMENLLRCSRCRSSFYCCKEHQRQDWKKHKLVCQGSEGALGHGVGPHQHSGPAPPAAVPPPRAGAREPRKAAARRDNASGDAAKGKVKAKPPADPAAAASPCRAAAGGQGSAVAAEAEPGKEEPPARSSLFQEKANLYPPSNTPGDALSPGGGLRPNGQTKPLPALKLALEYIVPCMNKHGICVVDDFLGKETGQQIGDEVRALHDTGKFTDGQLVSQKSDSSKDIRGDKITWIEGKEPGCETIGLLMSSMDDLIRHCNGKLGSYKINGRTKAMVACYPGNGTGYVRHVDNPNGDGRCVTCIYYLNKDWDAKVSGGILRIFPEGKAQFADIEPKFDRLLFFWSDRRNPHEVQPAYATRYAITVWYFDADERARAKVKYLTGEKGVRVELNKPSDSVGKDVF
Chain of Prolyl hydroxylase EGLN3 (Q9H6Z9 whole entry, the tested form may be a part): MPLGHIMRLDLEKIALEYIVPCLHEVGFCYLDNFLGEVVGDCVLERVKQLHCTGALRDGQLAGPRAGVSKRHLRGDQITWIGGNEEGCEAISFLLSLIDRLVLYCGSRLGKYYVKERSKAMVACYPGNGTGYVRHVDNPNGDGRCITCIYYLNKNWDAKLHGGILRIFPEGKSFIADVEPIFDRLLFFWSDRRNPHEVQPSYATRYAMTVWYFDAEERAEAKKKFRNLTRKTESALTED

Row | SMILES | IC50 [1] | IC50 [2] | IC50 [3]
1 | N#Cc1ccc(-c2cnn(-c3ccc(N4CCCC4=O)cn3)c2O)cc1 | < 100 nM | < 100 nM | < 100 nM
2 | CCS(=O)(=O)Nc1ccc(-n2ncc(-c3ccc(C#N)cc3)c2O)nc1 | < 100 nM | < 100 nM | < 100 nM
3 | CS(=O)(=O)c1ccc(-n2ncc(-c3ccc(C#N)cc3)c2O)nc1 | < 100 nM | < 100 nM | < 100 nM

Now from value to molecule:

Row | IC50 [1] | IC50 [2] | IC50 [3] | SMILES
4 | < 100 nM | < 100 nM | < 100 nM | CC(=O)c1ccc(-n2ncc(-c3ccc(C#N)cc3)c2O)nc1
5 | < 100 nM | < 100 nM | < 100 nM | N#Cc1ccc(-c2cnn(-c3ccc(-c4nccs4)cn3)c2O)cc1
6 | < 100 nM | < 100 nM | < 100 nM | CCC(=O)Nc1ccc(-n2ncc(-c3ccc(C#N)cc3)c2O)nc1
